According to US4876260A, “Oxathiolanes” (State of Israel, Israel Institute of Biological Research, priority 1988, dated 1989):

What was measured:
[1] = molecular target: T1, M1 muscarinic receptors (3H-PZ sites, forebrain) (Rattus norvegicus, UniProt P08482); assay: Displacement of 3H-Pirenzepine (3H-PZ, selective M1 antagonist) from rat forebrain homogenate; format: binding; settings: for Ki: (a) forebrain
T1 sequence (P08482 1-460): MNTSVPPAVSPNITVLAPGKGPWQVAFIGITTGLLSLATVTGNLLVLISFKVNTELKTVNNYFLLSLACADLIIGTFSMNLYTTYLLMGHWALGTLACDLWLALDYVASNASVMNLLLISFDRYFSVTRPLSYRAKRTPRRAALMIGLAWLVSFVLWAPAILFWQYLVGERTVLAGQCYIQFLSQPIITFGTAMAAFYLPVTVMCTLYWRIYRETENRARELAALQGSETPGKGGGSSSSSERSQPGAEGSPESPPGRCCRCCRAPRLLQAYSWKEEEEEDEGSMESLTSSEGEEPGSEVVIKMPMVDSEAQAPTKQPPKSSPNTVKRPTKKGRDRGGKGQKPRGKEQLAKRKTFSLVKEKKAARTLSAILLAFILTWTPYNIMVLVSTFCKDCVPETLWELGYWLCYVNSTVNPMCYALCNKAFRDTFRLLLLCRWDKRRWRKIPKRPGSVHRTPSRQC

[2] = molecular target: T2, M1 muscarinic receptors (3H-PZ sites, frontal cortex) (Rattus norvegicus, UniProt P08482); assay: Displacement of 3H-PZ from rat frontal cortex homogenate; format: binding; settings: for Ki: (a') frontal cortex, read-out: Ki(3H-PZ); for a':c', Ki(3H-PZ):Ki(3H-CD): (g) frontal cortex ratio
T2 sequence (P08482 1-460): T1 sequence (P08482 1-460)

[3] = test system: muscarinic receptors (3H-QNB sites, cerebellum, mainly M2); assay: biochemical; format: binding, rat; settings: for a:b": (h) Ki(3H-PZ) forebrain : Ki(3H-QNB) cerebellum; for b:b": (j) Ki(3H-QNB) forebrain : Ki(3H-QNB) cerebellum
mice = assay: Pharmacodynamic profile and general toxicity in mice; format: in vivo, CD-1 mice
Protocol: Male white mice of the CD-1 strain supplied by Charles River Ltd. (U.K.) were used throughout. An acclimatization period of at least three days was allowed between arrival and commencement of a particular experimental series. The animals were fed a complete commercial pelleted rodent diet without restriction during the acclimatization and study periods. Animals had free access to tap water. Body weights during testing were mostly within 20-28 g.
Test materials were prepared as aqueous solutions in physiological saline (0.9% NaCl), up to a maximum concentration of 10 mg./ml. All materials were freshly prepared on the morning prior to each dosing session. Dosages were expressed gravimetrically (mg./kg.), in terms of the materials as received.
Groups of mice (mostly n=5) received either i.v. or oral administration of the test materials at various dose levels. Dose volumes appropriate for respective dose levels selected, were determined for each animal according to body weights on the day of dosing. Any behavioral changes occurring during one to two hours after administration, as well as incidence of death up to 24 hours after dosing were recorded.

[4] = test system: isolated guinea-pig ileum; assay: Contraction of isolated guinea-pig ileum preparation
Source text: From this Table, it appears that compounds (III) were not so effective in contracting the guinea pig ileum preparation.

[5] = 25 mg/kg i.v., listed as (-)-III AF122A
[6] = 50 mg/kg i.v., listed as (-)-III AF122A
[7] = 100 mg/kg i.v., immed = immediately
[8] = 200 mg/kg p.o., listed as (-)-III AF122A
[9] = 50 mg/kg i.v., listed as (+)-III AF122A
[10] = 200 mg/kg p.o., listed as (+)-III AF122A
[11] = 10 mg/kg i.v., listed as (-)-III AF122B
[12] = 25 mg/kg i.v., listed as (-)-III AF122B
[13] = 50 mg/kg i.v., listed as (-)-III AF122B
[14] = 200 mg/kg p.o., listed as (-)-III AF122B

C[C@H]1O[C@]2(CS1)CN1CCC2CC1 (single isomer, unassigned) [Compound #5, 2-methylspiro(1,3-oxathiolan-5,3')quinuclidine]
a:b, Ki(3H-PZ):Ki(3H-QNB) [1]: 0.3
Ki [1]: 1.1 ± 0.3 µM
Ki [2]: 410 ± 80 nM
a':c', Ki(3H-PZ):Ki(3H-CD) [2]: 2.1
a:b" [3]: 0.14
b:b" [3]: 0.47

CC1OCC2(CN3CCC2CC3)S1 (single isomer, unassigned) [compound 12, 2-methylspiro(1,3-oxathiolan-4,3')quinuclidine]
Ki [2]: 350 ± 40 nM
Mortality, No. dead/total treated (mice; 10 mg/kg i.v., listed as (-)-III AF122A): 0/5
Exophthalmus, No. affected/total treated (mice; 25 mg/kg i.v.): 4/5
Convulsive seizures, No. affected/total treated (mice; [5]): 1/5
Mortality, No. dead/total treated (mice; [5]): 1/5
Mortality, time after drug administration (mice; [5]): 10 s
Respiratory distress, No. affected/total treated (mice; [5]): 4/5
Tremors, No. affected/total treated (mice; [5]): 4/5
Convulsive seizures, No. affected/total treated (mice; [6]): 1/1
Mortality, No. dead/total treated (mice; [6]): 1/1
Mortality, time after drug administration (mice; [6]): 10 s
Tremors, No. affected/total treated (mice; [6]): 1/1
Mortality, time after drug administration (mice; [7]): immed
Mortality, No. dead/total treated (mice; 100 mg/kg i.v., listed as (-)-III AF122A): 1/1
Mortality, No. dead/total treated (mice; 100 mg/kg p.o., listed as (-)-III AF122A): 0/5
Tremors, No. affected/total treated (mice; 200 mg/kg p.o.): 3/5
Convulsive seizures, No. affected/total treated (mice; [8]): 1/5
Mortality, No. dead/total treated (mice; [8]): 1/5
Respiratory distress, No. affected/total treated (mice; [8]): 3/5
Vocalization, No. affected/total treated (mice; [8]): 2/5
Mortality, time after drug administration (mice; 200 mg/kg p.o., m = minutes, listed as (-)-III AF122A): 10 m

CC1OCC2(CN3CCC2CC3)S1 (single isomer, unassigned) [compound 13, 2-methylspiro(1,3-oxathiolan-4,3')quinuclidine]
Ki [2]: 4210 ± 470 nM
Mortality, No. dead/total treated (mice; 10 mg/kg i.v., listed as (+)-III AF122A): 0/5
Mortality, No. dead/total treated (mice; 25 mg/kg i.v., listed as (+)-III AF122A): 0/5
Exophthalmus, No. affected/total treated (mice; 50 mg/kg i.v.): 3/5
Convulsive seizures, No. affected/total treated (mice; [9]): 5/5
Mortality, No. dead/total treated (mice; [9]): 4/5
Mortality, time after drug administration (mice; [9]): 30 s
Tremors, No. affected/total treated (mice; [9]): 4/5
Mortality, No. dead/total treated (mice; 50 mg/kg p.o.): 0/5
Mortality, time after drug administration (mice; [7]): immed
Mortality, No. dead/total treated (mice; 100 mg/kg i.v., listed as (+)-III AF122A): 1/1
Mortality, No. dead/total treated (mice; 100 mg/kg p.o., listed as (+)-III AF122A): 0/5
Altered motor activity (mice; [10]): a+h
Mortality, No. dead/total treated (mice; [10]): 0/5

C[C@H]1O[C@]2(CS1)CN1CCC2CC1 (single isomer, unassigned) [compound 6, 2-methylspiro(1,3-oxathiolan-5,3')quinuclidine]
a:b, Ki(3H-PZ):Ki(3H-QNB) [1]: 0.20
Ki [1]: 9.6 ± 1.8 µM
Ki [2]: 4630 ± 420 nM
a':c', Ki(3H-PZ):Ki(3H-CD) [2]: 0.6
a:b" [3]: 0.1
b:b" [3]: 0.48

C[C@@H]1O[C@]2(CS1)CN1CCC2CC1 (relative stereo) [compound 3, 2-methylspiro(1,3-oxathiolan-5,3')quinuclidine]
a:b, Ki(3H-PZ):Ki(3H-QNB) [1]: 0.59
Ki [1]: 14.6 ± 2.9 µM
a:b" [3]: 0.52
b:b" [3]: 0.88

C[C@H]1O[C@]2(CS1)CN1CCC2CC1 (relative stereo) [compound 4, 2-methylspiro(1,3-oxathiolan-5,3')quinuclidine]
a:b, Ki(3H-PZ):Ki(3H-QNB) [1]: 0.14
Ki [1]: 1 ± 0.4 µM
a':b', Ki(3H-PZ):Ki(3H-QNB) [2]: 0.13
Ki [2]: 960 ± 50 nM
a':c', Ki(3H-PZ):Ki(3H-CD) [2]: 2.5
a:b" [3]: 0.07
a':b" ([3]; (i) Ki(3H-PZ) frontal cortex : Ki(3H-QNB) cerebellum): 0.1
b:b" [3]: 0.47
b':b" ([3]; (k) Ki(3H-QNB) frontal cortex : Ki(3H-QNB) cerebellum): 0.39
Agonist type (remarks) [4]: Full agonist

CC1OCC2(CN3CCC2CC3)S1 (single isomer, unassigned) [compound 9, 2-methylspiro(1,3-oxathiolan-4,3')quinuclidine]
Ki [2]: 12100 nM
Contraction of guinea pig ileum (in words) ([4]; listed as (-)-AF122B): inconsistent contractile response: sometimes at high concentrations it induced contractions, whereas at other times it did not
Analgesia (nonresponsiveness to tail pinch), No. affected/total treated (mice; [11]): 3/5
Mortality, No. dead/total treated (mice; [11]): 0/5
Analgesia (nonresponsiveness to tail pinch), No. affected/total treated (mice; 25 mg/kg i.v.): 5/5
Vocalization, No. affected/total treated (mice; 25 mg/kg i.v.): 1/5
Altered motor activity (mice; [12]): a+h
Convulsive seizures, No. affected/total treated (mice; [12]): 3/5
Mortality, No. dead/total treated (mice; [12]): 0/5
Respiratory distress, No. affected/total treated (mice; [12]): 2/5
Tremors, No. affected/total treated (mice; [12]): 3/5
Convulsive seizures, No. affected/total treated (mice; [13]): 2/2
Mortality, No. dead/total treated (mice; [13]): 2/2
Mortality, time after drug administration (mice; [13]): 5 s
Altered motor activity (mice; 50 mg/kg p.o.): a+h
Mortality, time after drug administration (mice; [7]): immed
Mortality, No. dead/total treated (mice; 100 mg/kg i.v., listed as (-)-III AF122B): 2/2
Convulsive seizures, No. affected/total treated (mice; 100 mg/kg p.o.): 2/5
Respiratory distress, No. affected/total treated (mice; 100 mg/kg p.o.): 1/5
Tremors, No. affected/total treated (mice; 100 mg/kg p.o.): 1/5
Mortality, No. dead/total treated (mice; 100 mg/kg p.o., listed as (-)-III AF122B): 1/5
Analgesia (nonresponsiveness to tail pinch), No. affected/total treated (mice; [14]): 3/4
Convulsive seizures, No. affected/total treated (mice; [14]): 4/4
Mortality, No. dead/total treated (mice; [14]): 4/4
Respiratory distress, No. affected/total treated (mice; [14]): 3/5
Vocalization, No. affected/total treated (mice; [14]): 2/4
Mortality, time after drug administration (mice; 200 mg/kg p.o., m = minutes, listed as (-)-III AF122B): 20 m
